Source: patent US10519152B2, “Compounds and their use in treating cancer” (AstraZeneca AB, priority 2017, dated 2019)

Tests used:
[1] = molecular target: T1, recombinant human Estrogen Receptor alpha ligand binding domain, residues 307-554 (ER alpha-LBD (GST)) (Homo sapiens, UniProt P03372); test: ERα binding assay (LanthaScreen TR-FRET competition); settings: TR-FRET competition with Fluormone ES2 tracer, 4 hours at room temperature; single experiment or average of two or more
T1 construct: made in house
T1 sequence (P03372 307-554): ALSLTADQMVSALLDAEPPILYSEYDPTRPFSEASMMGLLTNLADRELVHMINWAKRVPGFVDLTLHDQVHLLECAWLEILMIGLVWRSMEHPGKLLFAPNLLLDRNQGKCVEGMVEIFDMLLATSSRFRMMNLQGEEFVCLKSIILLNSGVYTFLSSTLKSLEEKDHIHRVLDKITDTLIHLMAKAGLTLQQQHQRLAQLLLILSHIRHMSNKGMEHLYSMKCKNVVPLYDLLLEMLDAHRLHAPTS
Experimental: The ability of compounds to bind to isolated Estrogen Receptor Alpha Ligand binding domain (ER alpha-LBD (GST)) was assessed in competition assays using a LanthaScreen™ Time-Resolved Fluorescence Resonance Energy Transfer (TR-FRET) detection end-point. For the LanthaScreen TR-FRET endpoint, a suitable fluorophore (Fluormone ES2, ThermoFisher, Product code P2645) and recombinant human Estrogen Receptor alpha ligand binding domain, residues 307-554 (expressed and purified in-house) were used to measure compound binding. The assay principle is that ER alpha-LBD (GST) is added to a fluorescent ligand to form a receptor/fluorophore complex. A terbium-labelled anti-GST antibody (Product code PV3551) is used to indirectly label the receptor by binding to its GST tag, and competitive binding is detected by a test compound's ability to displace the fluorescent ligand, resulting in a loss of TR-FRET signal between the Tb-anti-GST antibody and the tracer. The assay was performed as follows with all reagent additions carried out using the Beckman Coulter BioRAPTR FRD microfluidic workstation: • 1. Acoustic dispense 120 nL of the test compound into a black low volume 384 well assay plates. • 2. Prepare 1×ER alpha-LBD/Tb-antiGST Ab in ES2 screening buffer and incubate for 15 minutes. • 3. Dispense 6 μL of the […] reagent into each well of the assay plate followed by 6 μL of Fluorophore reagent into each well of the assay plate • 4. Cover the assay plate to protect the reagents from light and evaporation, and incubate at room temperature for 4 hours. • 5. Excite at 337 nm and measure the fluorescent emission signal of each well at 490 nm and 520 nm using the BMG PheraSTAR.
Compounds were dosed directly from a compound source microplate containing serially diluted compound (4 wells containing 10 mM, […] and 10 nM final compound respectively) to an assay microplate using the Labcyte Echo 550. The Echo 550 is a liquid handler that uses acoustic technology to perform direct microplate-to-microplate transfers of DMSO compound solutions and the system can be programmed to transfer multiple small nL volumes of compound from the different source plate wells to give the desired serial dilution of compound in the assay which is then back-filled to normalise the DMSO concentration across the dilution range.
In total 120 nL of compound plus DMSO were added to each well and compounds were tested in a 12-point concentration response format over a final compound concentration range of 10, 2.917, 1.042, 0.2083, 0.1, 0.0292, 0.0104, 0.002083, 0.001, 0.0002917, 0.0001042, and 0.00001 μM respectively. TR-FRET dose response data obtained with each compound was exported into a suitable software package (such as Origin or Genedata) to perform curve fitting analysis. Competitive ER alpha binding was expressed as an IC50 value. This was determined by calculation of the concentration of compound that was required to give a 50% reduction in tracer compound binding to ER alpha-LBD.

[2] = molecular target: T2, Estrogen Receptor (ERα) in MCF-7 human ductal carcinoma breast cell line (Homo sapiens, UniProt P03372); test: MCF-7 ER degradation assay (cell based immuno-fluorescence); settings: MCF-7 cells, 18-22 hours incubation, 50% reduction of ERα expression; single experiment or average of two or more; read-out: MCF-7 ER degradation IC50
T2 construct: endogenous in cells; host or cells: MCF-7
T2 sequence (P03372 1-595): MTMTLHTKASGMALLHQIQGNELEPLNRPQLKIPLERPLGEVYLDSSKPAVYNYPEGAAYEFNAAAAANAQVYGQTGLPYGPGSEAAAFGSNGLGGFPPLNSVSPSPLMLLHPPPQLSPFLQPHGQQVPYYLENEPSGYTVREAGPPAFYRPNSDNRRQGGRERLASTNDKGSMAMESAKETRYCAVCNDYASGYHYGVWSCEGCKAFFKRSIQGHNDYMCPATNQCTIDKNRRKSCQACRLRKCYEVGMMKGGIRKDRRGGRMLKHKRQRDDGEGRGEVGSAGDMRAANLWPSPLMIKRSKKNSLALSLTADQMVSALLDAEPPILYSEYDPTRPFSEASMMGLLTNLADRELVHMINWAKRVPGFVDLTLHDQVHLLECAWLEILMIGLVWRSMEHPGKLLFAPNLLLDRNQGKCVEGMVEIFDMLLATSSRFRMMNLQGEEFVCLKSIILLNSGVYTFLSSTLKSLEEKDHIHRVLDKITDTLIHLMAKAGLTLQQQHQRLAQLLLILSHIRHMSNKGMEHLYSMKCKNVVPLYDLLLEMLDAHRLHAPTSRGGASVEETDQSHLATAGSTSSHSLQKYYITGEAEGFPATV
Experimental: MCF-7 ER Degradation Assay
The ability of compounds to down-regulate Estrogen Receptor (ER) numbers was assessed in a cell based immuno-fluorescence assay using the MCF-7 human ductal carcinoma breast cell line. MCF-7 cells were revived directly from a cryovial (approx 5×10^6 cells) in Assay Medium (phenol red free Dulbecco's Modified Eagle's medium (DMEM); Sigma D5921) containing 2 mM L-Glutamine and 5% (v/v) Charcoal/Dextran treated foetal calf serum. Cells were syringed once using a sterile 18 G×1.5 inch (1.2×40 mm) broad gauge needle and cell density was measured using a Coulter Counter (Beckman). Cells were further diluted in Assay Medium to a density of 3.75×10^4 cells per mL and 40 μL per well added to transparent bottomed, black, tissue culture-treated 384 well plates (Costar, No. 3712) using a Thermo Scientific Matrix WellMate or Thermo Multidrop. Following cell seeding, plates were incubated overnight at 37° C., 5% CO2 (Liconic carousel incubator). Test data was generated using the LabCyte Echo™ model 555 compound reformatter which is part of an automated workcell (Integrated Echo 2 workcell). Compound stock solutions (10 mM) of the test compounds were used to generate a 384 well compound dosing plate (Labcyte P-05525-CV1). 40 μL of each of the 10 mM compound stock solutions was dispensed into the first quadrant well and then 1:100 step-wise serial dilutions in DMSO were performed using a Hydra II (MATRIX UK) liquid handling unit to give 40 μL of diluted compound into quadrant wells 2 (0.1 mM), 3 (1 μM) and 4 (0.01 μM), respectively. 40 μL of DMSO added to wells in row P on the source plate allowed for DMSO normalisation across the dose range. To dose the control wells 40 μL of DMSO was added to row O1 and 40 μL of 100 μM fulvestrant in DMSO was added to row O3 on the compound source plate.
The Echo uses acoustic technology to perform direct microplate-to-microplate transfers of DMSO compound solutions to assay plates. The system can be programmed to transfer volumes as low as 2.5 nL in multiple increments between microplates and in so doing generates a serial dilution of compound in the assay plate which is then back-filled to normalise the DMSO concentration across the dilution range. Compounds were dispensed onto the cell plates with a compound source plate prepared as above producing a 12 point duplicate […] dose range with 3-fold dilutions and one final 10-fold dilution using the Integrated Echo 2 workcell. The maximum signal control wells were dosed with DMSO to give a final concentration of 0.3%, and the minimum signal control wells were dosed with fulvestrant to give a final concentration of 100 nM accordingly. Plates were further incubated for 18-22 hours at 37° C., 5% CO2 and then fixed by the addition of 20 μL of 11.1% (v/v) formaldehyde solution (in phosphate buffered saline (PBS)) giving a final formaldehyde concentration of 3.7% (v/v). Cells were fixed at room temperature for 20 mins before being washed two times with 250 μL PBS/Proclin (PBS with a Biocide preservative) using a BioTek platewasher, 40 μL of PBS/Proclin was then added to all wells and the plates stored at 4° C. The fixing method described above was carried out on the Integrated Echo 2 workcell. Immunostaining was performed using an automated AutoElisa workcell. The PBS/Proclin was aspirated from all wells and the cells permeabilised with 40 μL PBS containing 0.5% Tween™ 20 (v/v) for 1 hour at room temperature. The plates were washed three times in 250 μL of PBS/0.05% (v/v) Tween 20 with Proclin (PBST with a Biocide preservative) and then 20 μL of ERα (SP1) Rabbit monoclonal antibody (Thermofisher) 1:1000 in PBS/Tween™/3% (w/v) Bovine Serum Albumin was added. The plates were incubated overnight at 4° C. (Liconic carousel incubator) and then washed three times in 250 μL of PBS/0.05% (v/v) Tween™ 20 with Proclin (PBST). […]

Row | SMILES | IC50 [1] [nM] | DC50 [2] [nM]
1 | Cc1ncsc1-c1ccc(CNC(=O)[C@@H]2C[C@@H](O)CN2C(=O)[C@@H](NC(=O)CN(C)CCCCCOc2cc(F)c(C3c4[nH]c5ccccc5c4C[C@@H](C)N3CC(C)(C)F)c(F)c2)C(C)(C)C)cc1 (stereo partly drawn) [Example 90, (2S,4R)-1-((S)-2-(2-((5-(3,5-Difluoro-4-((1R,3R)-2-(2-fluoro-2-methylpropyl)-3-methyl-2,3,4,9-tetrahydro-1H-pyrido-[3,4-b]indol-1-yl)phenoxy)pentyl)(methyl)amino)acetamido)-3,3-dimethylbutanol)-4-hydroxy-N-(4-(4-methylthiazol-5-yl)benzyl)pyrrolidine-2-carboxamide] | 1.2 | 102
2 | Cc1ncsc1-c1ccc(CNC(=O)[C@@H]2C[C@@H](O)CN2C(=O)[C@@H](NC(=O)COCCCCOCCOc2ccc([C@@H]3c4[nH]c5ccccc5c4C[C@@H](C)N3CC(F)F)nc2)C(C)(C)C)cc1 [Example 24, (2S,4R)-1-((S)-2-(2-(4-(2-((6-((1S,3R)-2-(2,2-Difluoroethyl)-3-methyl-2,3,4,9-tetrahydro-1H-pyrido[3,4-b]indol-1-yl)pyridin-3-yl)oxy)ethoxy)butoxy)acetamido)-3,3-dimethylbutanoyl)-4-hydroxy-N-(4-(4-methylthiazol-5-yl)benzyl)pyrrolidine-2-carboxamide] | 18 | 300
3 | Cc1ncsc1-c1ccc(CNC(=O)[C@@H]2C[C@@H](O)CN2C(=O)[C@@H](NC(=O)COCCOCCOCCOc2cc(F)c([C@@H]3c4[nH]c5ccccc5c4C[C@@H](C)N3C[C@H](C)C(=O)O)c(F)c2)C(C)(C)C)cc1 [Example 30, (S)-3-((1R,3R)-1-(2,6-Difluoro-4-(((S)-13-((2S,4R)-4-hydroxy-2-((4-(4-methylthiazol-5-yl)benzyl)carbamoyl)pyrrolidine-1-carbonyl)-14,14-dimethyl-11-oxo-3,6,9-trioxa-12-azapentadecyl)oxy)phenyl)-3-methyl-1,3,4,9-tetrahydro-2H-pyrido[3,4-b]indol-2-yl)-2-methylpropanoic Acid] | 4.1 | 174
4 | Cc1ncsc1-c1ccc(CNC(=O)[C@@H]2C[C@@H](O)CN2C(=O)[C@@H](NC(=O)COCc2cccnc2COc2cc(F)c([C@@H]3c4[nH]c5ccccc5c4C[C@@H](C)N3CC(C)(C)F)c(F)c2)C(C)(C)C)cc1 [Example 133, (2S,4R)-1-((S)-2-(2-((2-((3,5-Difluoro-4-((1R,3R)-2-(2-fluoro-2-methylpropyl)-3-methyl-2,3,4,9-tetrahydro-1H-pyrido[3,4-b]indol-1-yl)phenoxy)methyl)pyridin-3-yl)methoxy)acetamido)-3,3-dimethylbutanoyl)-4-hydroxy-N-(4-(4-methylthiazol-5-yl)benzyl)pyrrolidine-2-carboxamide] | 0.7 | 0.8
5 | Cc1ncsc1-c1ccc(CNC(=O)[C@@H]2C[C@@H](O)CN2C(=O)[C@@H](NC(=O)CN2CCN(CCCCCOc3cc(F)c([C@@H]4c5[nH]c6ccccc6c5C[C@@H](C)N4CC(C)(C)F)c(F)c3)CC2)C(C)(C)C)cc1 [Example 2, (2S,4R)-1-((S)-2-(2-(4-(5-(3,5-Difluoro-4-((1R,3R)-2-(2-fluoro-2-methylpropyl)-3-methyl-2,3,4,9-tetrahydro-1H-pyrido[3,4-b]indol-1-yl)phenoxy)pentyl)piperazin-1-yl)acetamido)-3,3-dimethylbutanoyl)-4-hydroxy-N-(4-(4-methylthiazol-5-yl)benzyl)pyrrolidine-2-carboxamide] | 0.6 | 2.9
6 | Cc1ncsc1-c1ccc(CNC(=O)[C@@H]2C[C@@H](O)CN2C(=O)[C@@H](NC(=O)c2ccc(COc3cc(F)c([C@@H]4c5[nH]c6ccccc6c5C[C@@H](C)N4CC(C)(C)F)c(F)c3)cc2)C(C)(C)C)cc1 [Example 36, (2S,4R)-1-((S)-2-(4-((3,5-Difluoro-4-((1R,3R)-2-(2-fluoro-2-methylpropyl)-3-methyl-2,3,4,9-tetrahydro-1H-pyrido[3,4-b]indol-1-yl)phenoxy)methyl)benzamido)-3,3-dimethylbutanoyl)-4-hydroxy-N-(4-(4-methylthiazol-5-yl)benzyl)pyrrolidine-2-carboxamide] | 1 | 1
